Results on 29 compounds are retold here after patent publication US20110201603A1, “Novel Acylaminobenzamide Derivatives” (Bayer CropScience AG, priority 2008, published 2011).

Holding throughout (assay type): in vivo
In data set [1] the test system is tobacco cutworm (Spodoptera litura) larvae. The data set can be described thus: Test against tobacco cutworm (Spodoptera litura) larvae, leaf dip. To be noted: active compound concentration of 100 ppm; third-instar larvae on sweet potato leaves; after 7 days. As for the experimental part:
(§1) Unless not mentioned otherwise, the test solutions were prepared as follows:
(§2) Containing as solvent: Dimethylformamide, 3 parts by weight; and as emulsifier: Polyoxyethylene alkyl phenyl ether, 1 part by weight
(§3) To prepare the test solution, 1 part by weight of an active compound is mixed with the above-mentioned amount of solvent containing the above-mentioned amount of emulsifier, and the mixture is diluted with water to the desired concentration.
The leaves of sweet potato were immersed in the test solution at the appropriate concentration, and the leaves were dried in air. The leaves were then placed in a petri dish having a diameter of 9 cm, and ten third-instar larvae of tobacco cutworm were released therein. The petri dish was placed in a temperature-controlled chamber at 25° C. After 2 days and 4 days sweet potato leaves were additionally added. After 7 days, the number of dead larvae was counted to calculate the insecticidal activity. An insecticidal activity of 100% means that all larvae were killed, whereas an insecticidal activity of 0% means that no larva was killed. In the current test, the results of two petri dishes for each partition were averaged.

The test system of data set [2] is two-spotted spider mite (Tetranychus urticae). The data set can be described thus: Test against two-spotted spider mite (Tetranychus urticae), spray. To be noted: concentration of 100 ppm; adult mites on kidney beans; after 7 days. As for the experimental part: as §1, §2, §3
50 to 100 adult two-spotted spider mites were inoculated onto the leaves of kidney beans at the two-true leaf stage, which plant had been cultivated in a pot having a diameter of 6 cm. After one day, test solution at the appropriate concentration was sprayed thereon in a sufficient amount using a spray gun. After the spraying, the plant pot was placed inside a greenhouse, and after 7 days, the acaricidal activity was calculated. An acaricidal activity of 100% means that all mites were killed, whereas an acaricidal activity of 0% means that no mite was killed.

Data set [3] relates to cucurbit leaf beetle (Aulacophora femoralis). Put plainly: Test against cucurbit leaf beetle (Aulacophora femoralis), leaf dip. To be noted: active compound concentration of 100 ppm; second-instar larvae on cucumber leaves; after 7 days. As for the experimental part:
as §1, §2, §3
Cucumber leaves were immersed in the test solution at the appropriate concentration, and the leaves were dried in air. The leaves were then placed in a plastic cup containing sterilized black soil, and five second-instar larvae of cucurbit leaf beetle were released therein. The plastic cup was placed in a temperature-controlled chamber at 25° C. After 7 days, the number of dead larvae was counted, and thus the insecticidal activity was calculated. An insecticidal activity of 100% means that all beetles were killed, whereas an insecticidal activity of 0% means that no beetle was killed.

The test system of a further data set is Musca domestica. The data set can be described thus: Musca domestica test. To be noted: application rate of 100 ppm; adults, sugar sponge; after 2 days. On the procedure:
(§4) Solvent: dimethyl sulfoxide
To produce a suitable preparation of active compound, 10 mg of active compound are dissolved in 0.5 ml solvent, and the concentrate is diluted with water to the desired concentration. Prior to the assay, a piece or kitchen sponge is soaked with a mixture of sugar and compound solution and placed into a container. 10 adults (Musca domestica) are placed into the container and closed with a perforated lid. After 2 days mortality in % is determined. 100% means that all the flies have been killed; 0% means that none of the flies have been killed.

A further data set has as its system Ctenocephalides felis. Put plainly: Ctenocephalides felis test (CTECFE), blood feeding. To be noted: application rate of 100 ppm in cattle blood; adult unfed fleas; after 2 days. On the procedure: as §4
To produce a suitable preparation of active compound, 10 mg of active compound are dissolved in 0.5 ml solvent, and the concentrate is diluted with cattle blood to the desired concentration.
Approximately 10 to 15 adult unfed (Ctenocepahlides felis) are placed in flea chambers. The blood chamber, are sealed with paraffin on the bottom are filled with cattle blood supplied with compound solution and placed on top of the flea chamber, so that the fleas are able to suck the blood. The blood chamber is heated to 37° C. whereas the flea chamber is kept at room temperature. After 2 days mortality in % is determined. 100% means that all the fleas have been killed; 0% means that none of the fleas have been killed.

`O=C(Nc1c(Br)cc(C(CF)(n2cc(Cl)cn2)C(F)(F)F)cc1Br)c1cccc(NC(=O)c2cccnc2Cl)c1` (stereo not drawn) [2-24]: the insecticidal activity in data set [1] and in data set [3] was 100% throughout. The compound also showed an acaricidal activity rate in data set [2] of 100%.
For the compound `CCc1cc(C(Oc2ccc(Cl)cc2)(C(F)(F)F)C(F)(F)F)cc(C)c1NC(=O)c1cccc(NC(=O)c2cccnc2Cl)c1` [1-109], the insecticidal activity in data set [1] and in data set [3] was 100% throughout. The compound further registered an acaricidal activity rate in data set [2] of 100%.
In the case of `O=C(Nc1c(Br)cc(C(n2cc(Cl)cn2)(C(F)(F)F)C(F)(F)F)cc1Br)c1cccc(NC(=O)c2cccnc2Cl)c1` [2-62], the insecticidal activity in data set [1] and in data set [3] was 100% each time. The same compound returned an acaricidal activity rate in data set [2] of 100%.
For the compound `CCOC(c1cc(I)c(NC(=O)c2cccc(NC(=O)c3ccccc3F)c2)c(I)c1)(C(F)(F)F)C(F)(F)F` [1-26], the insecticidal activity in data set [1] and in data set [3] was 100% throughout. For the same compound, the “activity (mortality in %)” value stood at 90% with Musca domestica and 100% in the data set with Ctenocephalides felis.
Regarding `CCOC(c1cc(I)c(NC(=O)c2cccc(NC(=O)c3ccc(F)cc3)c2)c(I)c1)(C(F)(F)F)C(F)(F)F` [1-28], the insecticidal activity in data set [1] and in data set [3] was 100% throughout. The acaricidal activity rate in data set [2] stood at 100%.
As for `CCOC(c1cc(I)c(NC(=O)c2cccc(NC(=O)c3cccnc3Cl)c2)c(I)c1)(C(F)(F)F)C(F)(F)F` [1-40], the insecticidal activity in data set [1] and in data set [3] was 100% throughout. This compound also returned an acaricidal activity rate in data set [2] of 100%. For the same compound, the “activity (mortality in %)” value with Musca domestica is 100%; with Ctenocephalides felis, 90%.
For the compound `CCOC(c1cc(I)c(NC(=O)c2cccc(NC(=O)c3ccccc3)c2)c(I)c1)(C(F)(F)F)C(F)(F)F` [1-25], the insecticidal activity in data set [1] and in data set [3] was 100% each time. The “activity (mortality in %)” value is recorded as 80% with Musca domestica and 90% in the data set on Ctenocephalides felis.
For the compound `Cc1cc(C(n2cc(C(F)(F)F)cn2)(C(F)(F)F)C(F)(F)F)cc(C)c1NC(=O)c1cccc(NC(=O)c2cccnc2Cl)c1` [2-109], the insecticidal activity in data set [1] and in data set [3] was 100% each time. In the data set with Ctenocephalides felis, the “activity (mortality in %)” value amounted to 100%.
With `CCc1cc(C(OCC2CC2)(C(F)(F)F)C(F)(F)F)cc(C)c1NC(=O)c1cccc(NC(=O)c2cccnc2Cl)c1` [1-66], the insecticidal activity in data set [1] and in data set [3] was 100% in each case. The acaricidal activity rate in data set [2] amounted to 100%.
Take `CCc1cc(C(C#N)(C(F)(F)F)C(F)(F)F)cc(C)c1NC(=O)c1cccc(NC(=O)c2cccnc2Cl)c1` [4-5]: the insecticidal activity in data set [1] and in data set [3] was 100% each time. Further, the acaricidal activity rate in data set [2] is given as 100%.
For the compound `Cc1cc(C(N=[N+]=[N-])(C(F)(F)F)C(F)(F)F)cc(C)c1NC(=O)c1cccc(NC(=O)c2cccnc2Cl)c1` [2-145], the insecticidal activity in data set [1] and in data set [3] was 100% throughout. In data set [2], the acaricidal activity rate is given as 100%.
On to `Cc1cc(C(n2cc(F)cn2)(C(F)(F)F)C(F)(F)F)cc(C)c1NC(=O)c1cccc(NC(=O)c2cccnc2Cl)c1` [2-6], for which the insecticidal activity in data set [1] and in data set [3] was 100% in each case. Besides, the acaricidal activity rate in data set [2] was 100%.
In turn, `C#CCOC(c1cc(I)c(NC(=O)c2cccc(NC(=O)c3cccnc3Cl)c2)c(I)c1)(C(F)(F)F)C(F)(F)F` [1-80] yielded an insecticidal activity in data set [1] of 100%. The “activity (mortality in %)” value with Musca domestica worked out at 100%; in the data set with Ctenocephalides felis, 80%.
Compound `CCc1cc(C(n2cc(Cl)cn2)(C(F)(F)F)C(F)(F)F)cc(C)c1NC(=O)c1cccc(NC(=O)c2cccnc2)c1` [2-42] yielded an acaricidal activity rate in data set [2] of 100%.
Take `CC(c1cc(Br)c(NC(=O)c2cccc(NC(=O)c3cccnc3F)c2)c(Br)c1)(n1cc(Br)cn1)C(F)(F)F` (stereo not drawn) [2-82]: the insecticidal activity in data set [1] and in data set [3] was 100% each time. For the same compound, in data set [2], the acaricidal activity rate was found to be 100%.
For `Cc1cc(C(n2cncn2)(C(F)(F)F)C(F)(F)F)cc(Br)c1NC(=O)c1cccc(NC(=O)c2ccccc2F)c1` [2-151], the “activity (mortality in %)” value in the data set on Ctenocephalides felis stood at 90%.
Regarding `CCOC(c1cc(I)c(NC(=O)c2cccc(NC(=O)c3cccnc3F)c2)c(I)c1)(C(F)(F)F)C(F)(F)F` [1-59], the insecticidal activity in data set [1] and in data set [3] was 100% in each case. Besides, the figures for the “activity (mortality in %)” value in the data set with Musca domestica and with Ctenocephalides felis were 100% and 95%, respectively.
Regarding `CCc1cc(C(n2cccc2)(C(F)(F)F)C(F)(F)F)cc(C)c1NC(=O)c1cccc(NC(=O)c2cccnc2Cl)c1` [2-1], the insecticidal activity in data set [1] and in data set [3] was 100% each time. In data set [2], this compound displayed an acaricidal activity rate of 100%.
As to `Cc1cc(C(n2cncn2)(C(F)(F)F)C(F)(F)F)cc(C)c1NC(=O)c1cccc(NC(=O)c2cccnc2Cl)c1` [2-148], the “activity (mortality in %)” value in the data set with Ctenocephalides felis came out at 95%.
In data set [1], `CCc1cc(C(n2cc(Br)cn2)C(F)(F)F)cc(C)c1NC(=O)c1cccc(NC(=O)c2cccnc2Cl)c1` (stereo not drawn) [2-77] registered an insecticidal activity of 100%. Further, the “activity (mortality in %)” value in the data set with Ctenocephalides felis was found to be 90%.
Consider `Cc1cc(C(n2cc(Br)cn2)(C(F)(F)F)C(F)(F)F)cc(C)c1NC(=O)c1cccc(NC(=O)c2cccnc2Cl)c1` [2-84], for which, in data set [1], the insecticidal activity worked out at 100%. For the same compound, the acaricidal activity rate in data set [2] came out at 100%. The “activity (mortality in %)” value with Ctenocephalides felis amounted to 95%.
In the case of `CCOC(c1cc(I)c(NC(=O)c2cccc(NC(=O)c3ccc(Cl)nc3Cl)c2)c(I)c1)(C(F)(F)F)C(F)(F)F` [1-61], in data set [2], the acaricidal activity rate is on record as 100%. The same compound registered an insecticidal activity in data set [3] of 100%.
For the compound `Cc1cc(C(n2cc(C(F)(F)F)cn2)C(F)(F)F)cc(C)c1NC(=O)c1cccc(NC(=O)c2cccnc2F)c1` (stereo not drawn) [2-103], the insecticidal activity in data set [1] and in data set [3] was 100% in each case. Further, in the data set on Ctenocephalides felis, the “activity (mortality in %)” value was 95%.
As to `Cc1cc(C(n2cc(C(F)(F)F)cn2)(C(F)(F)F)C(F)(F)F)cc(C)c1NC(=O)c1cccc(NC(=O)c2cccnc2F)c1` [2-108], the insecticidal activity in data set [1] and in data set [3] was 100% in each case. Besides, the “activity (mortality in %)” value in the data set on Ctenocephalides felis stood at 100%.
`Cc1cc(C(n2cc(Cl)cn2)(C(F)(F)F)C(F)(F)F)cc(C)c1NC(=O)c1cccc(NC(=O)c2cccnc2Cl)c1` [2-51]: the insecticidal activity in data set [1] is on record as 100%. In data set [2], this compound displayed an acaricidal activity rate of 100%. For the same compound, the “activity (mortality in %)” value with Ctenocephalides felis is 100%.
Take `CCc1cc(C(n2cc(Cl)cn2)(C(F)(F)F)C(F)(F)F)cc(C)c1NC(=O)c1cccc(NC(=O)c2cccnc2Cl)c1` [2-55]: the insecticidal activity in data set [1] and in data set [3] was 100% each time. The same compound had an acaricidal activity rate in data set [2] of 100%.
The compound `CCCOC(c1cc(I)c(NC(=O)c2cccc(NC(=O)c3ccc(Cl)nc3Cl)c2)c(I)c1)(C(F)(F)F)C(F)(F)F` [1-64] showed an acaricidal activity rate in data set [2] of 100%.
Regarding `CC(c1cc(Br)c(NC(=O)c2cccc(NC(=O)c3cccnc3Cl)c2)c(Br)c1)(n1cc(Br)cn1)C(F)(F)F` (stereo not drawn) [2-83], the insecticidal activity in data set [1] and in data set [3] was 100% in each case. In data set [2], this compound registered an acaricidal activity rate of 100%.
As for `CCOC(=O)Nc1cccc(C(=O)Nc2c(I)cc(C(OCC)(C(F)(F)F)C(F)(F)F)cc2I)c1` [1-24], the insecticidal activity in data set [1] was 100%. Further, in the data set with Musca domestica, the “activity (mortality in %)” value is 90%.
